Here are results for four compounds from patent publication US8357375B2, “Process for the preparation and use of a bivalent vaccine against morphine-heroine addiction” (Instituto Nacional de Psiquiatria Ramon de la Fuente Muniz, priority 2004, dated 2013).

The experiment concerns anti-morphine-heroin serum antibodies. Description: competitive immunoenzymatic ELISA for antibody specificity. Type of experiment: binding, rat. The conditions noted are these: competitive antigen, nM-μM range. Background: An ELISA detects its analyte on a solid surface through an enzyme-linked reagent.

As for `CN1CC[C@]23c4c5ccc(O[C@@H]6O[C@H](C(=O)O)[C@@H](O)[C@H](O)[C@H]6O)c4O[C@H]2[C@@H](O)C=C[C@H]3[C@H]1C5` [morphine-3-glucuronide], the “cross-recognition by anti-morphine-heroin serum antibodies” value (shortened to “cross-recognition”) is on record as “cross-recognize”.

Turning to `CN1CC[C@]23c4c5ccc(O)c4O[C@H]2[C@@H](O[C@@H]2O[C@H](C(=O)O)[C@@H](O)[C@H](O)[C@H]2O)C=C[C@H]3[C@H]1C5` [morphine-6-glucuronide], the “cross-recognition” value is recorded as “cross-recognize”.

Take `O=C1CC[C@@]2(O)[C@H]3Cc4ccc(O)c5c4[C@@]2(CCN3CC2CC2)[C@H]1O5` [naltrexone]: the “cross-recognition” value is “no cross-recognition”.

Regarding “β-endorphin (YGGFMTSEKSQTPLVTLFKNAIIKNAYKKGE; Beta-endorphin; UniProt P01189 237-267, looked up) [endogenous opioid peptide produced in the CNS of mammals]”, the “cross-recognition” value is “not able to cross-recognize”.
